{"source": "patent US10799478B2", "about": "“Treatment of androgen deprivation therapy associated symptoms” (priority 2014, dated 2020)", "key": {"[1]": {"experiment": "Allometric prediction of human clearance, bioavailability and dose"}, "human Androgen receptor": {"target": "T1, human Androgen receptor (Homo sapiens, UniProt P10275)", "T1 sequence (P10275 1-920)": "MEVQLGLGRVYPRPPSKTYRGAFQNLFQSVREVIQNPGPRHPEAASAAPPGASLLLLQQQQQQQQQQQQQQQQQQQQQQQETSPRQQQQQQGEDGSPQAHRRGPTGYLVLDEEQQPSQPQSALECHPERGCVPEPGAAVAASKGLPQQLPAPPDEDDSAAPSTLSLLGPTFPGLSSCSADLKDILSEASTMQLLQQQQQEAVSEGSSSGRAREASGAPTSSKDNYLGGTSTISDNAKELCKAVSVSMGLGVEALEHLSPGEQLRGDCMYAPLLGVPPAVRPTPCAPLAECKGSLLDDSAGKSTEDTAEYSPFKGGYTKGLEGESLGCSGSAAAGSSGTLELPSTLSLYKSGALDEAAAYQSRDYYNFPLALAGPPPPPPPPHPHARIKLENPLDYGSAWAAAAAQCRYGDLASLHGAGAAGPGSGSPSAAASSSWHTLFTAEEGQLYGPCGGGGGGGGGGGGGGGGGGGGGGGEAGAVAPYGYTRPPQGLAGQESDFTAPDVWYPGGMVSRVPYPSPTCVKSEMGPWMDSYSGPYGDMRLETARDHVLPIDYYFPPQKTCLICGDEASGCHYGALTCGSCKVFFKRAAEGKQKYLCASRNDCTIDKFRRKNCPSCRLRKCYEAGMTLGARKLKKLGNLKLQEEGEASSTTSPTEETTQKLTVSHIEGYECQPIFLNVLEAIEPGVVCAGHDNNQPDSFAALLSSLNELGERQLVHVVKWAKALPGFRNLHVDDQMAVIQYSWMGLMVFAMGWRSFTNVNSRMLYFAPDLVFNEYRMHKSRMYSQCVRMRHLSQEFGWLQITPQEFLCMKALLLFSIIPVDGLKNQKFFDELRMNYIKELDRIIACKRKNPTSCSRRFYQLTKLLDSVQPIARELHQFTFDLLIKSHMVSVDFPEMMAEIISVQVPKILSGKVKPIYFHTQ", "experiment": "hAR binding affinity (Ki)", "details": "comparison with R1881"}, "[2]": {"experiment": "52 Week Toxicity and Toxicokinetic Study in Dogs", "assay_type": "in vivo, dog", "details": "beagle, dog, in vivo; for Cmax / AUC(0-t): po", "experimental": "(§1) Male and female purebred beagle dogs are assigned to groups, and doses are administered according to Table 9 via oral capsules containing 1 ml/kg of 0 [1% (w/v) carboxymethylcellulose sodium (low viscosity/25-50 cps), 0.5% (w/v) sodium lauryl sulfate and 0.05% (v/v) Dow Corning® Antifoam 1510-US in reverse osmosis water] […] All animals receive the same number of capsules, and Group 1 animals receive capsules containing vehicle control article only. Three animals per sex from Groups 1 and 4 are designated as recovery animals.\n(§2) Assessment of toxicity is based on mortality, clinical signs, body weight and body weight change, food consumption, ophthalmic and neurologic evaluations, ECG measurements, hormone analysis (testosterone, progesterone, luteinizing hormone, and follicle stimulating hormone), semen evaluation (ejaculate volume and sperm number, density, morphology, and motility), and clinical and anatomic pathology. Blood samples are collected for exploratory metabolite analysis and toxicokinetic evaluations."}, "beagle dogs": {"system": "beagle dogs", "experiment": "52 Week Toxicity and Toxicokinetic Study in Dogs", "assay_type": "in vivo, dog", "experimental": "as §1, §2"}, "male rats": {"system": "male rats", "experiment": "Male Fertility and Toxicokinetic Study in Rats", "assay_type": "in vivo, rat", "experimental": "The purpose of this study is to determine the potential adverse effects in the reproductive process resulting from treatment of male rats prior to, and during, the mating period. This includes identification of functional reproductive effects in the male.\nMale rats (20/group) are treated daily for 10 weeks prior to mating, throughout the 3-week mating period, and continuing through the day prior to euthanasia (for a total of 100 to 101 doses). Female rats are not treated. All animals are observed twice daily for moribundity and mortality. Clinical observations are recorded daily for male rats; body weights and food consumption are recorded for males twice weekly. All males are euthanized 1 day following the last dose administration. Spermatogenic endpoint evaluations conducted on all males include motility and morphology and epididymal sperm concentration. Testes, epididymis, prostate and seminal vesicle/coagulating gland/fluid from all males are weighed and retained. Testes, epididymis, prostate, seminal vesicles and coagulating glands from surviving males are examined microscopically. A laparohysterectomy is performed on Gestation Day 15 for each female with evidence of mating. An additional 3, 18, 18, and 18 males assigned to the toxicokinetic phase are given the compound at doses of 0, 3, 30, and 1000 mg/kg, respectively, and are sampled for toxicokinetic evaluation at appropriate intervals following dose administration on Study Days 0 and 70."}, "CD [Crl:CD (SD)] rats": {"system": "CD [Crl:CD (SD)] rats", "experiment": "Four Week Oral Toxicity Study in Rats", "assay_type": "in vivo, rat", "details": "for decrease in albumin / decrease in total protein / increase in alkaline phosphatase: females", "experimental": "(§3) Three treatment groups of 10 male and 10 female CD® [Crl:CD® (SD)] rats are administered the test article at respective dose levels of 15, 150, and 1500 mg/kg/day. […] The test article or vehicle is administered to all groups via oral gavage, once a day for 28 consecutive days, at a dose volume of 15 mL/kg. Additionally, three groups of 18 animals/sex/group serves as toxicokinetic (TK) animals and receives the test article in the same manner and dose volume as the main study groups at respective dose levels of 15, 150, and 1500 mg/kg/day. One additional group of three animals/sex serves as the toxicokinetic control and receives the vehicle in the same manner and dose volume as the treated groups.\n(§4) Observations for morbidity, mortality, injury, and the availability of food and water are conducted twice daily for all animals. Observations for clinical signs are conducted weekly for main study animals only. Body weights were measured and recorded weekly for all animals and food consumption is measured and recorded weekly for main study animals. Ophthalmoscopic examinations are conducted pretest on all animals and prior to terminal necropsy for main study animals only. Blood samples for clinical pathology evaluations are collected from all main study animals at necropsy. Urine samples are collected on the last day of dosing. Blood samples for determination of the plasma concentrations of the test article are collected from TK animals at designated time points on Days 1 and 28. After the final blood collection, the TK animals are euthanized and the carcasses are discarded without further evaluation. Liver samples for hepatic enzyme induction analysis are collected at terminal necropsy from main study animals. At study termination, necropsy examinations are performed, organ weights are recorded, and prostate and seminal vesicle tissues are microscopically examined. Additional microscopic examination is performed on the left testis from the first five male rats/group at necropsy."}, "[3]": {"experiment": "Four Week Oral Toxicity Study in Rats", "assay_type": "in vivo, rat", "details": "CD [Crl:CD (SD)], rat", "experimental": "as §3, §4"}}}
{"compound": "CC(C)OC(=O)N[C@H]1Cc2c(n(Cc3ccccn3)c3ccc(C#N)cc23)C1", "note": "(single isomer, unassigned) [Example 1]", "values": [{"measurement": "predicted human bioavailability", "setting": "[1]", "result": 49, "unit": "%"}, {"measurement": "allometrically predicted human clearance", "setting": "[1]; 90% CI 24 to 46", "result": 33, "unit": "Uh"}, {"measurement": "biochemical binding affinity to the human Androgen receptor", "setting": "human Androgen receptor", "result": "only modestly reduced"}, {"measurement": "NOAEL at 52 weeks", "setting": "[2]; both sexes, oral, daily capsule, 52 weeks", "result": 100, "unit": "mg/kg"}, {"measurement": "Cmax", "setting": "[2]; female, females, 100 mg/kg, after 361 days of dosing", "result": 1880, "unit": "ng/mL"}, {"measurement": "AUC(0-t)", "setting": "[2]; female, females, 100 mg/kg, after 361 days of dosing, read-out: AUC0-24 h", "result": 31500, "unit": "ng·h/mL"}, {"measurement": "AUC(0-t)", "setting": "[2]; male, dogs, 12 months, 3 mg/kg/day, read-out: Male group mean AUC0-24 hr near termination", "result": 3620, "unit": "ng·h/mL"}, {"measurement": "Cmax", "setting": "[2]; male, males, 100 mg/kg, after 361 days of dosing", "result": 1500, "unit": "ng/mL"}, {"measurement": "survival until the scheduled sacrifice", "setting": "beagle dogs; 3, 10, 100 mg/kg", "result": "All animals survived"}, {"measurement": "Accumulation after multiple dosing", "setting": "beagle dogs; dogs, 3 to 100 mg/kg", "result": "observed"}, {"measurement": "mating, fertility, and copulation indices", "setting": "male rats; 1000 mg/kg group males", "result": "lower"}, {"measurement": "increase of mean exposure (AUC0-24 hr) between 3 and 30 mg/kg", "setting": "male rats; Day 0", "result": "approximately 7.8 fold"}, {"measurement": "increase of mean exposure (AUC0-24 hr) between 3 and 30 mg/kg", "setting": "male rats; Day 70", "result": "~4.5", "unit": "fold"}, {"measurement": "Mean body weights, body weight gains, and food consumption", "setting": "male rats; all dosage levels", "result": "unaffected"}, {"measurement": "Intrauterine survival of the embryos", "setting": "male rats; males dosed 3, 30, 1000 mg/kg", "result": "unaffected"}, {"measurement": "systemic exposure (AUC0-24 hr) increase with dose", "setting": "CD [Crl:CD (SD)] rats; 15, 150, 1500 mg/kg/day oral gavage", "result": "less-than-dose-proportional"}, {"measurement": "unscheduled deaths", "setting": "CD [Crl:CD (SD)] rats; 15-1500 mg/kg/day, 28 days", "result": "no unscheduled deaths"}, {"measurement": "decrease in albumin", "setting": "CD [Crl:CD (SD)] rats; 150 mg/kg/day", "result": 12, "unit": "%"}, {"measurement": "decrease in total protein", "setting": "CD [Crl:CD (SD)] rats; 150 mg/kg/day", "result": 9, "unit": "%"}, {"measurement": "increase in alkaline phosphatase", "setting": "CD [Crl:CD (SD)] rats; 150 mg/kg/day", "result": 1.33, "unit": "fold"}, {"measurement": "decrease in albumin", "setting": "CD [Crl:CD (SD)] rats; 1500 mg/kg/day", "result": 12, "unit": "%"}, {"measurement": "decrease in total protein", "setting": "CD [Crl:CD (SD)] rats; 1500 mg/kg/day", "result": 10, "unit": "%"}, {"measurement": "increase in alkaline phosphatase", "setting": "CD [Crl:CD (SD)] rats; 1500 mg/kg/day", "result": 1.45, "unit": "fold"}, {"measurement": "hepatic microsomal enzyme induction", "setting": "CD [Crl:CD (SD)] rats; following 28 days of dosing", "result": "no evidence"}, {"measurement": "NOAEL at 28 days", "setting": "[3]; both sexes, in vivo, 4 weeks oral gavage, highest dose administered", "result": 1500, "unit": "mg/kg/day"}, {"measurement": "AUC(0-t)", "setting": "[3]; female, plasma, oral, females, 1500 mg/kg/day, read-out: Mean steady-state systemic exposure (AUC0-24 hr)", "result": 217000, "unit": "ng·h/mL"}]}
